Experimental data published in patent US11279735B2, “Cyclic peptide antibiotics” (priority 2017, dated 2022).
Converted amounts (≈) assume the structure as drawn. *1 amine or outer side, *2 acyl side, *3 side chain or, on linkers, in order; H or OH if unused. Where a SMILES comes first, the peptide text is derived from it. [ ]: non-standard residue; d: D form. The star is where a group is joined. X13 = C[C@H](CO[C@H](CC1CC2(CCC2)C1)[C@@H](C)C(=O)[*:2])N[*:1]; X6 = CCCCCC[C@@H](OC[C@@H](CC)N[*:1])[C@@H](C)C(=O)[*:2]; Gly(cHept) = N[C@H](C(=O)O)C1CCCCCC1; aThr = C[C@H](O)[C@H](N)C(=O)O; NMeL = CN[C@@H](CC(C)C)C(=O)O; Chg = N[C@H](C(=O)O)C1CCCCC1; NMeNva = CCC[C@H](NC)C(=O)O; Dap = NC[C@H](N)C(=O)O; Propyl(3-NH2) = NCCC*

What follows are molecules tested on Escherichia coli (E. coli) strain CFT073 ATCC 700928. Details: ATCC 700928, 22 h.
Assay type: cell-based
Outline: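 MICs were read after 22 h at 35 °C, with bacteria added to a final OD600 of 0.0005. Compounds were serially diluted 2-fold over ten concentrations from a top of 64, 4, 0.5 or 0.13 μg/mL (protocols 1–4). Medium was cation-adjusted Mueller Hinton II broth plus 0.002% Tween-80, following CLSI M07-A8.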

Compound	MIC
CCCCCCC1OC(=O)CNC(=O)[C@H](CNC(=O)Cn2ccnc2)NC(=O)[C@H](CN)NC(=O)[C@H](C2CCCCC2)NC(=O)[C@H](CC(C)C)N(C)C(=O)[C@@H]1C (stereo in doubt) [Example 160, N-[[(6S,9S,12S,15S,18R,19R)-9-(Aminomethyl)-12-cyclohexyl-19-hexyl-15-isobutyl-16,18-dimethyl-2,5,8,11,14,17-hexaoxo-1-oxa-4,7,10,13,16-pentazacyclononadec-6-yl]methyl]-2-imidazol-1-yl-acetamide]	71 µM (≈ 55 µg/mL)
CCCCCCCCCCCC[C@H]1OC(=O)CNC(=O)[C@H]([C@H](C)O)NC(=O)[C@H](CO)NC(=O)[C@H]([C@@H](C)CC)NC(=O)[C@H](CC(C)C)N(C)C(=O)[C@@H]1C [Example 35, (6S,9S,12S,15S,18R,19R)-19-dodecyl-6-[(1S)-1-hydroxyethyl]-9-(hydroxymethyl)-15-isobutyl-16,18-dimethyl-12-[(1S)-1-methylpropyl]-1-oxa-4,7,10,13,16-pentazacyclononadecane-2,5,8,11,14,17-hexone]	6.3 µM (≈ 4.66 µg/mL)
CCCCCCCCCC[C@H]1OC(=O)CNC(=O)[C@H]([C@H](C)O)NC(=O)[C@H](CN)NC(=O)[C@H]([C@H](C)CC)NC(=O)[C@H](CC2CC2)N(C)C(=O)[C@@H]1C [Example 2, (6S,9S,12S,15S,18R,19R)-9-(aminomethyl)-12-((R)-sec-butyl)-15-(cyclopropylmethyl)-19-decyl-6-((S)-1-hydroxyethyl)-16,18-dimethyl-1-oxa-4,7,10,13,16-pentaazacyclononadecane-2,5,8,11,14,17-hexaone]	3.1 µM (≈ 2.2 µg/mL)
CC(C)C[C@H]1C(=O)N[C@@H](C2CCCCC2)C(=O)N[C@@H](CN)C(=O)N[C@@H](COCCCN)C(=O)NCC(=O)O[C@H](CCCCC(C)(C)C)[C@@H](C)C(=O)N1C [Example 75, (6S,9S,12S,15S,18R,19R)-9-(Aminomethyl)-6-((3-aminopropoxy)methyl)-12-cyclohexyl-19-(5,5-dimethylhexyl)-15-isobutyl-16,18-dimethyl-1-oxa-4,7,10,13,16-pentaazacyclononadecane-2,5,8,11,14,17-hexaone]	3.1 µM (≈ 2.33 µg/mL)
CC(C)C[C@H]1C(=O)N[C@@H](C2CCCCC2)C(=O)N[C@@H](CN)C(=O)N[C@@H]([C@H](C)O)C(=O)NCC(=O)O[C@H](CCC2CC3CCC2C3)[C@@H](C)C(=O)N1C (stereo partly drawn) [Example 60, (6S,9S,12S,15S,18R,19R)-9-(Aminomethyl)-19-(2-(bicyclo[2.2.1]heptan-2-yl)ethyl)-12-cyclohexyl-6-((S)-1-hydroxyethyl)-15-isobutyl-16,18-dimethyl-1-oxa-4,7,10,13,16-pentaazacyclononadecane-2,5,8,11,14,17-hexaone]	0.73 µM (≈ 0.525 µg/mL)
CCCCCC[C@H]1OC(=O)CNC(=O)[C@H]([C@H](C)O)NC(=O)[C@H](CN)NC(=O)[C@H](Cc2ccccc2)NC(=O)[C@H](CC(C)C)N(C)C(=O)[C@@H]1C [Example 91, (6S,9S,12S,15S,18R,19R)-9-(aminomethyl)-12-benzyl-19-hexyl-15-isobutyl-16,18-dimethyl-6-[(1S)-1-hydroxyethyl]-1-oxa-4,7,10,13,16-pentazacyclononadecane-2,5,8,11,14,17-hexone]	50 µM (≈ 34.4 µg/mL)
CCCCCCCCCC[C@H]1OC(=O)CNC(=O)[C@H]([C@H](C)O)NC(=O)[C@H](CN)NC(=O)[C@H]([C@H](C)CC)NC(=O)C(CCC(F)(F)F)N(C)C(=O)[C@@H]1C (single isomer, unassigned) [Example 17, 9-(aminomethyl)-19-decyl-6-(1-hydroxyethyl)-16,18-dimethyl-12-sec-butyl-15-(3,3,3-trifluoropropyl)-1-oxa-4,7,10,13,16-pentazacyclononadecane-2,5,8,11,14,17-hexone]	25 µM (≈ 18.8 µg/mL)
CCCCCCCCCC[C@H]1OC(=O)[C@@H](CC)NC(=O)[C@H]([C@H](C)O)NC(=O)[C@H](CN)NC(=O)[C@H]([C@H](C)CC)NC(=O)[C@H](CC(C)C)N(C)C(=O)[C@@H]1C [Example 93, (3R,6S,9S,12S,15S,18R,19R)-9-(aminomethyl)-19-decyl-3-ethyl-15-isobutyl-16,18-dimethyl-6-[(1S)-1-hydroxyethyl]-12-[(1R)-1-methylpropyl]-1-oxa-4,7,10,13,16-pentazacyclononadecane-2,5,8,11,14,17-hexone]	10 µM (≈ 7.39 µg/mL)
CCCCCCCCCC[C@H]1OC(=O)CNC(=O)[C@H]([C@H](C)O)NC(=O)[C@H](CN)NC(=O)[C@H]([C@H](C)CC)NC(=O)[C@H](CC2CCC2)N(C)C(=O)[C@@H]1C [Example 16, (6S,9S,12S,15S,18R,19R)-9-(aminomethyl)-15-(cyclobutylmethyl)-19-decyl-6-[(1S)-1-hydroxyethyl]-16,18-dimethyl-12-[(1R)-1-methylpropyl]-1-oxa-4,7,10,13,16-pentazacyclononadecane-2,5,8,11,14,17-hexone]	6.3 µM (≈ 4.55 µg/mL)
CCC[C@H]1C(=O)N[C@@H](C2CCCCCC2)C(=O)N[C@@H](CN)C(=O)N[C@@H](COCCCN)C(=O)N[C@H](C)CO[C@H](CC2CC3(CCC3)C2)[C@@H](C)C(=O)N1C [Example 159, (3R,6S,9S,12S,15S,18R,19R)-9-(Aminomethyl)-6-((3-aminopropoxy)methyl)-12-cycloheptyl-3,16,18-trimethyl-15-propyl-19-(spiro[3.3]heptan-2-ylmethyl)-1-oxa-4,7,10,13,16-pentaazacyclononadecane-5,8,11,14,17-pentaone] (cyclo([Dap]S(Propyl(3-NH2))[X13][NMeNva][Gly(cHept)]))	3.1 µM (≈ 2.32 µg/mL)
CCCCCCCCCC[C@H]1OC(=O)CNC(=O)[C@H](CC)NC(=O)[C@H](CO)NC(=O)[C@H]([C@@H](C)CC)NC(=O)[C@H](CC(C)C)N(C)C(=O)[C@@H]1C [Example 24, (6S,9S,12S,15S,18R,19R)-19-decyl-16-ethyl-9-(hydroxymethyl)-15-isobutyl-16,18-dimethyl-12-[(1S)-1-methylpropyl]-1-oxa-4,7,10,13,16-pentazacyclononadecane-2,5,8,11,14,17-hexone]	13 µM (≈ 9.05 µg/mL)
CCCCCC[C@H]1OC(=O)CNC(=O)[C@H](C2CCC2)NC(=O)[C@H](CN)NC(=O)[C@H](C2CCCCC2)NC(=O)[C@H](CC(C)C)N(C)C(=O)[C@@H]1C [Example 162, (6S,9S,12S,15S,18R,19R)-9-(Aminomethyl)-6-cyclobutyl-12-cyclohexyl-19-hexyl-15-isobutyl-16,18-dimethyl-1-oxa-4,7,10,13,16-pentaazacyclononadecane-2,5,8,11,14,17-hexaone]	3.1 µM (≈ 2.14 µg/mL)
CCCCCC[C@H]1OC[C@@H](CC)NC(=O)[C@H]([C@H](C)O)NC(=O)[C@H](CN)NC(=O)[C@H](C2CCCCC2)NC(=O)[C@H](CC(C)C)N(C)C(=O)[C@@H]1C [Example 144, (3R,6S,9S,12S,15S,18R,19R)-9-(aminomethyl)-12-cyclohexyl-3-ethyl-19-hexyl-15-isobutyl-16,18-dimethyl-6-[(1S)-1-hydroxyethyl]-1-oxa-4,7,10,13,16-pentazacyclononadecane-5,8,11,14,17-pentone] (cyclo([Chg][Dap][aThr][X6][NMeL]))	2.2 µM (≈ 1.53 µg/mL)
CC(C)C[C@H]1C(=O)N[C@@H](C2CCCCC2)C(=O)N[C@@H](CN)C(=O)N[C@@H]([C@H](C)O)C(=O)NCC(=O)O[C@H](CC2CC3CCC2C3)[C@@H](C)C(=O)N1C (stereo partly drawn) [Example 62, (6S,9S,12S,15S,18R,19R)-9-(Aminomethyl)-19-(((exo)-bicyclo[2.2.1]heptan-2-yl)methyl)-12-cyclohexyl-6-((S)-1-hydroxyethyl)-15-isobutyl-16,18-dimethyl-1-oxa-4,7,10,13,16-pentaazacyclononadecane-2,5,8,11,14,17-hexaone]	1.6 µM (≈ 1.13 µg/mL)
CCC[C@H]1C(=O)N[C@@H](C2CCCCCC2)C(=O)N[C@@H](CN)C(=O)N[C@@H]([C@H](C)O)C(=O)NCC(=O)O[C@H](C[C@@H]2C[C@@H]3CC[C@@H](C3)C2)[C@@H](C)C(=O)N1C [Example 83, (6S,9S,12S,15S,18R,19R)-9-(Aminomethyl)-19-(((1R,3s,5S)-bicyclo[3.2.1]octan-3-yl)methyl)-12-cycloheptyl-6-((S)-1-hydroxyethyl)-16,18-dimethyl-15-propyl-1-oxa-4,7,10,13,16-pentaazacyclononadecane-2,5,8,11,14,17-hexaone]	0.39 µM (≈ 0.28 µg/mL)
CCCCCC[C@H]1OC(=O)CNC(=O)[C@H]([C@H](C)O)NC(=O)[C@H](CN)NC(=O)[C@H](C2CCCCCC2)NC(=O)[C@H](CC(C)C)N(C)C(=O)[C@@H]1C [Example 59, (6S,9S,12S,15S,18R,19R)-9-(Aminomethyl)-12-cycloheptyl-19-hexyl-6-((S)-1-hydroxyethyl)-15-isobutyl-16,18-dimethyl-1-oxa-4,7,10,13,16-pentaazacyclononadecane-2,5,8,11,14,17-hexaone]	1.1 µM (≈ 0.764 µg/mL)
CCCCCC[C@H]1OC(=O)CNC(=O)[C@H]([C@H](C)O)NC(=O)[C@H](CN)NC(=O)[C@H](c2ccccc2)NC(=O)[C@H](CC(C)C)N(C)C(=O)[C@@H]1C [Example 98, (6S,9S,12S,15S,18R,19R)-9-(aminomethyl)-19-hexyl-15-isobutyl-16,18-dimethyl-12-phenyl-6-[(1S)-1-hydroxyethyl]-1-oxa-4,7,10,13,16-pentazacyclononadecane-2,5,8,11,14,17-hexone]	71 µM (≈ 47.9 µg/mL)
Cc1ccc(C[C@H]2C(=O)N(C)[C@@H](CC(C)C)C(=O)N[C@@H](C3CCCCC3)C(=O)N[C@@H](CN)C(=O)N[C@@H]([C@H](C)O)C(=O)NCC(=O)O[C@@H]2CCC(F)(F)F)cc1 [Example 112, (6S,9S,12S,15S,18R,19R)-9-(aminomethyl)-12-cyclohexyl-15-isobutyl-16-methyl-18-(p-tolylmethyl)-6-[(1S)-1-hydroxyethyl]-19-(3,3,3-trifluoropropyl)-1-oxa-4,7,10,13,16-pentazacyclononadecane-2,5,8,11,14,17-hexone]	71 µM (≈ 55.6 µg/mL)
